2 compounds from PMC7827014, “Synthetic Transition from Thiourea-Based Compounds to Tetrazole Derivatives: Structure and Biological Evaluation of Synthesized New N-(Furan-2-ylmethyl)-1H-tetrazol-5-amine Derivatives” (Molecules, 2021) can be followed below.

Assay [1] concerns E. coli ATCC 25922. Put plainly: MIC microdilution, standard strain. The assay is classed as cell-based. The following applies: Escherichia coli, ATCC25922; E. coli ATCC 25922, 18 h, 35 °C; read-out: MIC. In general terms: In broth dilution the organism is exposed to a series of concentrations in liquid medium.
The subject of assay [2] is M. tuberculosis H37Rv. Put plainly: In vitro antitubercular MIC. The assay is classed as cell-based. To be noted: Mycobacterium tuberculosis, read-out: Minimal inhibitory concentration.
Assay [3] relates to HaCaT. Put plainly: MTT assay 72 h. Type of assay: cell-based, human. The following applies: Homo sapiens; HaCaT normal cells, MTT 72 h, mean ± SD; read-out: IC50. How it is done: (§1) The cell viability was assessed by using an enzymatic conversion of 3-(4,5-dimethylthiazol-2-yl)-2,5-diphenyltetrazolium bromide salt (MTT) to insoluble formazan crystals by mitochondrial dehydrogenases, occurring in living cells. Cells were cultured in 96-well plates at a density of l × 10^4 cells per well, and cultured to adhere for 24 h at 37 °C in a CO2 incubator. After 24 h of incubation, culture medium was replaced with a fresh medium, then cells were treated with various concentrations of the compounds and incubated for 72 h at 37 °C in a CO2 incubator. Untreated cells were used as the control. Subsequently, MTT solution (0,5 mg/mL in free-serum medium) was added, and samples were incubated for 4 h at 37 °C in a CO2 incubator. Then, the medium was aspirated, and formed formazan crystals were solubilized by adding an isopropanol-DMSO mixture (1:1 vol). The intensity of the dissolved crystals was measured using a UVM 340 reader (ASYS Hitech GmbH, Austria), at a wavelength of 570 nm. Cell viability was presented as a percent of MTT reduced in treated cells versus control cells (incubated without tested compounds). The relative MTT level (%) was calculated as [A]/[B]×100, where [A] is the absorbance of the test sample, and [B] is the absorbance of the control sample containing the untreated cells. The IC50 value was estimated using CalcuSyn version 1.0. […]
(§2) Antiproliferative activity of tested compounds. Data are given as IC50 [µM] and SI.
(§3) Human immortal keratinocyte cell line from adult human skin (HaCaT), Human colorectal adenocarcinoma (CaCo-2), Human epithelial lung carcinoma cell line (A549) and Human melanoma cell line (HTB-140). Data are expressed as mean ± SD. The SI (Selectivity Index) was calculated for each compound using formula: SI = IC50 for normal cel line / IC50 cancer cel line.
Background: Tetrazolium assays rely on reduction of a dye to a coloured formazan, in cell work by metabolically active cells.

Assay [4] has as its system HTB-140. Put plainly: MTT assay 72 h. Type of assay: cell-based, human. To be noted: Homo sapiens; HTB-140, MTT 72 h, mean ± SD. How it is done:
as §1, §2, §3

The subject of assay [5] is A549. Put plainly: MTT assay 72 h. Type of assay: cell-based, human. The following applies: Homo sapiens; A549, MTT 72 h, mean ± SD; read-out: IC50. How it is done: as §1, §2, §3
The test system of assay [6] is M. tuberculosis INH susceptible (Spec. 192). Put plainly: In vitro antitubercular MIC. Type of assay: cell-based. The following applies: Mycobacterium tuberculosis, read-out: Minimal inhibitory concentration.
The subject of assay [7] is E. coli NCTC 8196. Description: MIC microdilution, standard strain. Type of assay: cell-based. To be noted: Escherichia coli, NCTC8196; E. coli NCTC 8196, 18 h, 35 °C; read-out: MIC.
For assay [8], the system named is S. epidermidis ATCC 12228. Description: MIC microdilution, standard strain. The assay is classed as cell-based. To be noted: Staphylococcus epidermidis, ATCC12228; S. epidermidis ATCC 12228, 18 h, 35 °C; read-out: MIC.
The test system of assay [9] is P. aeruginosa ATCC 15442. Put plainly: MIC microdilution, standard strain. The assay is classed as cell-based. To be noted: Pseudomonas aeruginosa, ATCC15442, 18 h.
Assay [10] concerns S. aureus NCTC 4163. Put plainly: MIC microdilution, standard strain. The assay is classed as cell-based. To be noted: Staphylococcus aureus, NCTC4163; S. aureus NCTC 4163, 18 h, 35 °C; read-out: MIC.
The subject of assay [11] is Caco-2. Description: MTT assay 72 h. To be noted: Homo sapiens; Caco-2, MTT 72 h, mean ± SD; read-out: IC50. The assay is classed as cell-based. The method, then: as §1, §2, §3
Assay [12] concerns E. hirae ATCC 10541. Put plainly: MIC microdilution, standard strain. To be noted: Enterococcus hirae, ATCC10541; E. hirae ATCC 10541, 18 h, 35 °C; read-out: MIC. Type of assay: cell-based.
The subject of assay [13] is S. aureus ATCC 29213. Put plainly: MIC microdilution, standard strain. To be noted: Staphylococcus aureus, ATCC29213; S. aureus ATCC 29213, 18 h, 35 °C; read-out: MIC. Type of assay: cell-based.
The subject of assay [14] is S. aureus T5403/51. Put plainly: MIC microdilution, clinical isolate. Type of assay: cell-based. The following applies: Staphylococcus aureus.
The subject of assay [15] is S. epidermidis T 5501 851/19. Description: MIC microdilution, clinical isolate. Type of assay: cell-based. The following applies: Staphylococcus epidermidis, T5501851/19.
Assay [16] has as its system S. aureus T5241/46. Description: MIC microdilution, clinical isolate. The assay is classed as cell-based. The following applies: Staphylococcus aureus.
In assay [17] the test system is S. epidermidis KR 4358/2 840/19. Description: MIC microdilution, clinical isolate. To be noted: Staphylococcus epidermidis, KR4358/2840/19. Type of assay: cell-based.
Assay [18] concerns S. epidermidis KR 4243 829/19. Description: MIC microdilution, clinical isolate. Type of assay: cell-based. The following applies: Staphylococcus epidermidis, KR4243829/19.
For assay [19], the system named is S. aureus T5591/68. Put plainly: MIC microdilution, clinical isolate. The assay is classed as cell-based. The following applies: Staphylococcus aureus.
The subject of assay [20] is S. aureus T5384/48. Put plainly: MIC microdilution, clinical isolate. Type of assay: cell-based. To be noted: Staphylococcus aureus.
Assay [21] has as its system S. aureus 203/19. Put plainly: MIC microdilution, clinical isolate. The assay is classed as cell-based. To be noted: Staphylococcus aureus.
The test system of assay [22] is S. epidermidis T 5399 848/19. Put plainly: MIC microdilution, clinical isolate. The assay is classed as cell-based. To be noted: Staphylococcus epidermidis, T5399848/19.
Assay [23] concerns S. epidermidis KR 4268 830/19. Put plainly: MIC microdilution, clinical isolate. The assay is classed as cell-based. To be noted: Staphylococcus epidermidis, KR4268830/19.
Assay [24] has as its system standard bacterial strains. Description: MIC, panel of standard bacterial strains. Type of assay: cell-based. The method, then: (§4) Compounds were screened for their minimal inhibitory concentrations (MICs).
(§5) The antimicrobial assays were conducted using reference strains of bacteria derived from international microbe collections—American Type Culture Collection (ATCC) and National Collection of Type Culture (NCTC). […] The antimicrobial activity of compounds was expressed by minimum inhibitory concentration values (MICs), according to CLCI reference procedures with some modifications. MIC was tested by the two-fold serial microdilution method (in 96-well microtiter plates) on MH II liquid medium. […] The stock solution of tested compounds was prepared in DMSO, and diluted in sterile medium (to a maximum of 1% of solvent content). […] Clinical microorganisms used in this study were obtained from the collection of the Department of Pharmaceutical Microbiology, Medical University of Warsaw, Poland.

In assay [25] the test system is S. aureus 155/6. Put plainly: MIC microdilution, clinical isolate. The assay is classed as cell-based. To be noted: Staphylococcus aureus.
Assay [26] relates to hospital staphylococcal isolates. Put plainly: MIC, panel of clinical staphylococcal isolates. The assay is classed as cell-based. How it is done:
as §4, §5

Assay [27] concerns S. epidermidis KR 4047 825/19. Description: MIC microdilution, clinical isolate. The assay is classed as cell-based.
Assay [28] concerns S. aureus T5595/69. Put plainly: MIC microdilution, clinical isolate. Type of assay: cell-based. To be noted: Staphylococcus aureus.
In assay [29] the test system is S. aureus 176/13. Put plainly: MIC microdilution, clinical isolate. The assay is classed as cell-based. The following applies: Staphylococcus aureus.
For assay [30], the system named is S. epidermidis T 5253 845/19. Put plainly: MIC microdilution, clinical isolate. Type of assay: cell-based. To be noted: Staphylococcus epidermidis, T5253845/19.
The subject of assay [31] is S. epidermidis KR 4313 834/19. Description: MIC microdilution, clinical isolate. The assay is classed as cell-based. The following applies: Staphylococcus epidermidis, KR4313834/19.

Each structure is given as a SMILES string. Values after ≈ are worked out from the molar mass of the structure shown. Read-outs that look alike come from different tables or passages of the source.

For `Ic1ccc(-n2nnnc2NCc2ccco2)cc1` [Compound 3, N-(furan-2-ylmethyl)-1-(4-iodophenyl)-1H-tetrazol-5-amine], the MIC is 128 µg/mL (≈ 349 µM) in assay [1]; above 512 µg/mL in [2]; above 512 µg/mL in assay [6]; 128 µg/mL (≈ 349 µM) in assay [7]; 128 µg/mL (≈ 349 µM) in [8]; 512 µg/mL (≈ 1390 µM) in assay [9]. Moreover, the results for the MIC in [10], in assay [12] and in assay [13] were 64 µg/mL (≈ 174 µM), 128 µg/mL (≈ 349 µM) and 64 µg/mL (≈ 174 µM), respectively. For the same compound, the IC50 in assay [3], in assay [4], in [5] and in [11] was above 100 µM in each case.
Turning to `Fc1ccccc1-n1nnnc1NCc1ccco1` [Compound 6, 1-(2-fluorophenyl)-N-(furan-2-ylmethyl)-1H-tetrazol-5-amine], the MIC in assay [14] worked out at 8 µg/mL (≈ 30.9 µM); in [15], 2 µg/mL (≈ 7.71 µM); in [1] it was 16 µg/mL (≈ 61.7 µM); in assay [2], 512 µg/mL (≈ 1970 µM); in assay [16], 8 µg/mL (≈ 30.9 µM); in assay [17], 4 µg/mL (≈ 15.4 µM). Moreover, the MIC in assay [18] was determined as 4 µg/mL (≈ 15.4 µM); in [6], 512 µg/mL (≈ 1970 µM); in assay [7] it was 512 µg/mL (≈ 1970 µM); in [19], 8 µg/mL (≈ 30.9 µM); in assay [8], 32 µg/mL (≈ 123 µM); in [20], 8 µg/mL (≈ 30.9 µM). Also, the MIC in [21] was 8 µg/mL (≈ 30.9 µM); in assay [22], 4 µg/mL (≈ 15.4 µM); in [10], 8 µg/mL (≈ 30.9 µM); in [23] it was 8 µg/mL (≈ 30.9 µM); in [24] (some Gram-negative strains) it was 16 µg/mL (≈ 61.7 µM); in [25] it was 16 µg/mL (≈ 61.7 µM). Moreover, the MIC in [26] (Staphylococcus aureus, rest of studied Staphylococci, except S. aureus 155/6, read-out: MICs) was 8 µg/mL (≈ 30.9 µM); in assay [26] (Staphylococcus epidermidis, four hospital S. epidermidis isolates, read-out: MIC) it was 4 µg/mL (≈ 15.4 µM); in assay [12], 16 µg/mL (≈ 61.7 µM); in [27] (Staphylococcus epidermidis, KR4047825/19, clinical isolate S. epidermidis KR 4047 825/19), 8 µg/mL (≈ 30.9 µM); in [28] it was 8 µg/mL (≈ 30.9 µM); in [29], 8 µg/mL (≈ 30.9 µM). Besides, the figures for the MIC in assay [30], in assay [31] and in assay [13] were 8 µg/mL (≈ 30.9 µM), 4 µg/mL (≈ 15.4 µM) and 8 µg/mL (≈ 30.9 µM), respectively. In addition, the IC50 in [3], in [4], in assay [5] and in [11] was above 100 µM each time. In addition, the “MIC (range)” value in assay [24] (standard Staphylococci) lay within 8 to 32 µg/mL. In addition, the “growth inhibitory strength relative to Ciprofloxacin” value in [26] (two clinical S. epidermidis strains) is recorded as 8–16 fold. Further, the “strength relative to Ciprofloxacin” value in [27] (S. epidermidis KR 4047 825/19 isolate) is reported as “half of the Ciprofloxacin strength”.

The IC50 is the concentration that gives 50% inhibition.
